Laboratory results taken from ChEMBL document CHEMBL1201862, “PubChem BioAssay data set” (2004).
Calls of active or inactive are those of the source. Rule as the data show it, for most assays here: actives have a measured EC50 and inactives only a lower limit.

What was measured:
[1] = biological target: T1, Sentrin-specific protease 6 (Homo sapiens, UniProt Q9GZR1); assay type: functional;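 also: Luminescence-based dose-response confirmatory assay of SENP6 inhibition, following up an ultra-high-throughput screen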
T1 sequence (Q9GZR1 whole entry): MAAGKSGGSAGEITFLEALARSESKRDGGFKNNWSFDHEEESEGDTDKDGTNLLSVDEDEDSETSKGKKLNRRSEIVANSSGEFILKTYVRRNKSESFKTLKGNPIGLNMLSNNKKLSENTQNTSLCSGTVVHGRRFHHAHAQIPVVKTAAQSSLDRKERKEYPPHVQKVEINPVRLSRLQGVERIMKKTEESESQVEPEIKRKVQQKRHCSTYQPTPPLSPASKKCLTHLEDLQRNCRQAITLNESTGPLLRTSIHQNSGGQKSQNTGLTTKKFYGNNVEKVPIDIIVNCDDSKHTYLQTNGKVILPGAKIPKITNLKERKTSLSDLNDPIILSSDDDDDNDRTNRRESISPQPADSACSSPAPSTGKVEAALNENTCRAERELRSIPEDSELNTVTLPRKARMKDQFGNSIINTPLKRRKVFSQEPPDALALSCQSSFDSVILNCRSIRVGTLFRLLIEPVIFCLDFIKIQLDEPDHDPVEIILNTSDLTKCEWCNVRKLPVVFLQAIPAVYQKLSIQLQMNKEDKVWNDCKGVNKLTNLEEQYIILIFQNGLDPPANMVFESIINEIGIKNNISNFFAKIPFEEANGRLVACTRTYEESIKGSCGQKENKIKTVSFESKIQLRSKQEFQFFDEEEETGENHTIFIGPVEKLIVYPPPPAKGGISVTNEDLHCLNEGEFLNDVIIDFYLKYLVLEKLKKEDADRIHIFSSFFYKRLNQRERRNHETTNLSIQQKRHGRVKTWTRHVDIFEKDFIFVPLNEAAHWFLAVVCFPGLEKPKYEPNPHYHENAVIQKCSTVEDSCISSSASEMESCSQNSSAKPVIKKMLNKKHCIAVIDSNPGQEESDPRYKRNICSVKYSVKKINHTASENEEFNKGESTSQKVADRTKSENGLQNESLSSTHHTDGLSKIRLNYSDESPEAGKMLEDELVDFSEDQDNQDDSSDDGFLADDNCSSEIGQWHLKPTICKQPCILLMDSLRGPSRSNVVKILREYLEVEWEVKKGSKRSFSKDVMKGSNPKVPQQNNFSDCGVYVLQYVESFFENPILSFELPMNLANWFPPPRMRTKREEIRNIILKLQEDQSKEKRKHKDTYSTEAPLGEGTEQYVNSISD

[2] = biological target: T2, Sentrin-specific protease 8 (Homo sapiens, UniProt Q96LD8); assay type: functional;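 also: luminescence read-out of SENP8 inhibition, dose-response confirmation following an ultra-high-throughput screen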
T2 sequence (Q96LD8 whole entry): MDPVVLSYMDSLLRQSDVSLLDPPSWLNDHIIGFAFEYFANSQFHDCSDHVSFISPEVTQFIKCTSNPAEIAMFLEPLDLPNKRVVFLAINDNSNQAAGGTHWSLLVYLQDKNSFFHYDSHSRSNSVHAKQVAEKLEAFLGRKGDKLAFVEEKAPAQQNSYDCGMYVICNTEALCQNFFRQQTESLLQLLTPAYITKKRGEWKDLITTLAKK

[3] = test system: BJ; test: BJ-TERT fibroblast viability loss – cell-based, RAS-independent, luminescence, dose response (AID 1933); assay type: functional; details: Homo sapiens
[4] = test system: BJ; test: cells; assay type: functional, cell-based; details: Homo sapiens
[5] = test system: BJ; test: BJ-TERT-LT-ST fibroblast viability loss – cell-based, RAS-independent, luminescence, dose response (AID 1935); assay type: functional; details: Homo sapiens;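 also: BJ fibroblasts immortalized with TERT plus LT and ST oncogenes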

SMILES | IC50 [1] | IC50 [2] | EC50 [3] | EC50 [4] | EC50 [5]
CCc1cc[n+](C2=C([N-]S(=O)(=O)c3cccs3)C(=O)c3ccccc3C2=O)cc1 | 3.57 µM (active) | 8.48 µM (active) | – | – | –
O=C(NC1=C(NC2CCS(=O)(=O)C2)C(=O)c2ccccc2C1=O)c1ccccc1 (stereo not given) | – | – | 11 µM (inconclusive) | 3.28 µM (active) | > 75 µM (not active)
CCCC(=O)NC(c1ccc(N(C)C)cc1)c1ccc2cccnc2c1O (stereo not given) | – | – | 2.5 µM (active) | 3.42 µM (active) | 2.72 µM (active)
COc1ccccc1N(/N=C1\Sc2ccccc2C1=O)C(C)=O | 4.28 µM (active) | 5.39 µM (active) | – | – | –
